Reference: PubChem BioAssay (NCI)
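Where inhibition never reached the appropriate level, the endpoint shown equals the highest concentration tested. Otherwise, values were interpolated linearly from a five-concentration, 48-hour dose response in 96-well plates. The concentration for full growth arrest is given as TGI.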

Experiments:
Assay in all cases: growth of human tumour cells (NCI), 48 h
[1] = system: 786-0 renal
[2] = system: A549 NSCLC
[3] = system: ACHN renal
[4] = system: CAKI-1 renal
[5] = system: CCRF-CEM leukemia
[6] = system: COLO 205 colon
[7] = system: DLD-1 colon
[8] = system: DMS 114 small cell lung
[9] = system: DMS 273 small cell lung
[10] = system: EKVX NSCLC
[11] = system: HCC-2998 colon
[12] = system: HCT-116 colon
[13] = system: HCT-15 colon
[14] = system: HL-60(TB) leukemia
[15] = system: HOP-18 NSCLC
[16] = system: HOP-62 NSCLC
[17] = system: HOP-92 NSCLC
[18] = system: HT29 colon
[19] = system: IGROV1 ovarian
[20] = system: K-562 leukemia
[21] = system: KM12 colon
[22] = system: KM20L2 colon
[23] = system: LOX IMVI melanoma
[24] = system: LXFL 529 NSCLC
[25] = system: M14 melanoma
[26] = system: M19-MEL melanoma
[27] = system: MALME-3M melanoma
[28] = system: MOLT-4 leukemia
[29] = system: NCI-H226 lung
[30] = system: NCI-H460 lung
[31] = system: OVCAR-3 ovarian
[32] = system: OVCAR-4 ovarian
[33] = system: OVCAR-5 ovarian
[34] = system: OVCAR-8 ovarian
[35] = system: RPMI-8226 leukemia
[36] = system: RXF 393 renal
[37] = system: SF-295 CNS
[38] = system: SK-MEL-2 melanoma
[39] = system: SK-MEL-28 melanoma
[40] = system: SK-MEL-5 melanoma
[41] = system: SK-OV-3 ovarian
[42] = system: SN12C renal
[43] = system: SNB-19 CNS
[44] = system: SNB-75 CNS
[45] = system: SNB-78 CNS
[46] = system: SW-620 colon
[47] = system: TK-10 renal
[48] = system: U251 CNS
[49] = system: UACC-257 melanoma
[50] = system: UACC-62 melanoma
[51] = system: UO-31 renal
[52] = system: XF 498 CNS
[53] = system: A498 renal
[54] = system: BT-549 breast
[55] = system: DU-145 prostate
[56] = system: HS 578T breast
[57] = system: MCF7 breast
[58] = system: MDA-MB-231 breast
[59] = system: MDA-MB-435
[60] = system: MDA-N
[61] = system: NCI-H23 lung
[62] = system: NCI-H522 lung
[63] = system: NCI/ADR-RES ovarian
[64] = system: PC-3 prostate
[65] = system: SF-268 CNS
[66] = system: SF-539 CNS
[67] = system: SR leukemia
[68] = system: T-47D breast
[69] = system: RXF-631 renal

CN[C@H](C)[C@@H](OC)c1ccccc1 was tested, and the TGI [1] was > 100 µM, the TGI [2] was > 100 µM and the TGI [3] was > 100 µM. The TGI [4] was > 100 µM, the TGI [5] was > 100 µM and the TGI [6] was > 100 µM. The TGI [7] was > 100 µM, the TGI [8] was > 100 µM and the TGI [9] was > 100 µM. For the same compound, the TGI [10] was > 100 µM, the TGI [11] was > 100 µM and the TGI [12] was > 100 µM. For the same compound, the TGI [13] was > 100 µM, the TGI [14] was > 100 µM and the TGI [15] was > 100 µM. For the same compound, the TGI [16] was > 100 µM, the TGI [17] was > 100 µM and the TGI [18] was > 100 µM. For the same compound, the TGI [19] was > 100 µM, the TGI [20] was > 100 µM and the TGI [21] was > 100 µM. The TGI [22] was > 100 µM, the TGI [23] was > 100 µM and the TGI [24] was > 100 µM. For the same compound, the TGI [25] was > 100 µM, the TGI [26] was > 100 µM and the TGI [27] was > 100 µM. The TGI [28] was > 100 µM, the TGI [29] was > 100 µM and the TGI [30] was > 100 µM. The TGI [31] was > 100 µM, the TGI [32] was > 100 µM and the TGI [33] was > 100 µM. The TGI [34] was > 100 µM, the TGI [35] was > 100 µM and the TGI [36] was > 100 µM. The TGI [37] was > 100 µM, the TGI [38] was > 100 µM and the TGI [39] was > 100 µM. For the same compound, the TGI [40] was > 100 µM, the TGI [41] was > 100 µM and the TGI [42] was > 100 µM. For the same compound, the TGI [43] was > 100 µM, the TGI [44] was > 100 µM and the TGI [45] was > 100 µM. The TGI [46] was > 100 µM, the TGI [47] was > 100 µM and the TGI [48] was > 100 µM. The TGI [49] was > 100 µM, the TGI [50] was > 100 µM and the TGI [51] was > 100 µM. For the same compound, the TGI [52] was > 100 µM.
S=C(S)N1CCOCC1 was tested, and the TGI [1] was > 41.4 µM, the TGI [53] was > 54.4 µM and the TGI [2] was > 100 µM. For the same compound, the TGI [3] was > 100 µM, the TGI [54] was > 100 µM and the TGI [4] was > 34 µM. For the same compound, the TGI [5] was 4.42 µM, the TGI [6] was 5.98 µM and the TGI [7] was 5.22 µM. For the same compound, the TGI [8] was 0.904 µM, the TGI [9] was 21.1 µM and the TGI [55] was > 100 µM. The TGI [10] was > 100 µM, the TGI [11] was > 31.1 µM and the TGI [12] was 24.9 µM. The TGI [13] was > 60.1 µM, the TGI [14] was 14.3 µM and the TGI [15] was > 100 µM. For the same compound, the TGI [16] was > 100 µM, the TGI [17] was > 100 µM and the TGI [56] was > 100 µM. For the same compound, the TGI [18] was 17.1 µM, the TGI [19] was > 100 µM and the TGI [20] was 24.9 µM. For the same compound, the TGI [21] was > 100 µM, the TGI [22] was > 53.2 µM and the TGI [23] was > 78.3 µM. The TGI [24] was > 100 µM, the TGI [25] was 98.4 µM and the TGI [26] was 12.4 µM. The TGI [27] was > 64.2 µM, the TGI [57] was > 100 µM and the TGI [58] was > 100 µM. The TGI [59] was > 100 µM, the TGI [60] was > 100 µM and the TGI [28] was 9.89 µM. The TGI [29] was > 100 µM, the TGI [61] was > 34 µM and the TGI [30] was > 29.6 µM. For the same compound, the TGI [62] was 3.98 µM, the TGI [63] was > 100 µM and the TGI [31] was 15.8 µM. The TGI [32] was > 34.5 µM, the TGI [33] was > 100 µM and the TGI [34] was > 100 µM. The TGI [64] was > 100 µM, the TGI [35] was 42.6 µM and the TGI [36] was 12.7 µM. For the same compound, the TGI [65] was > 100 µM, the TGI [37] was > 100 µM and the TGI [66] was > 83.6 µM. For the same compound, the TGI [38] was > 100 µM, the TGI [39] was 82.2 µM and the TGI [40] was > 63.9 µM. For the same compound, the TGI [41] was > 100 µM, the TGI [42] was > 100 µM and the TGI [43] was > 100 µM. The TGI [44] was > 29.8 µM, the TGI [45] was > 100 µM and the TGI [67] was 14.8 µM. The TGI [46] was 16.5 µM, the TGI [68] was > 100 µM and the TGI [47] was > 100 µM. For the same compound, the TGI [48] was 25.8 µM, the TGI [49] was > 100 µM and the TGI [50] was 15 µM. For the same compound, the TGI [51] was > 100 µM and the TGI [52] was 16 µM.
In the case of Clc1ccc(C2=Nc3ccccc3SC(c3cccs3)C2)cc1 (centres undefined), the TGI [1] is reported as 29.8 µM, the TGI [53] is reported as 28.1 µM and the TGI [2] is reported as 36 µM. The TGI [3] was 28.7 µM, the TGI [4] was 31.3 µM and the TGI [6] was 31.2 µM. For the same compound, the TGI [7] was 22 µM, the TGI [8] was 31.2 µM and the TGI [9] was 27.1 µM. The TGI [10] was 31.3 µM, the TGI [11] was 30.9 µM and the TGI [12] was 20 µM. For the same compound, the TGI [13] was 27.1 µM, the TGI [15] was 35 µM and the TGI [16] was 39.3 µM. For the same compound, the TGI [18] was 27.8 µM, the TGI [19] was 28 µM and the TGI [20] was 33.7 µM. It also gave a TGI [21] of 22.5 µM, a TGI [22] of 30.2 µM and a TGI [23] of 19.9 µM. The TGI [24] was 31.3 µM, the TGI [25] was 30 µM and the TGI [26] was 28.8 µM. The TGI [28] was > 100 µM, the TGI [61] was 27.2 µM and the TGI [30] was 32 µM. For the same compound, the TGI [62] was 32 µM, the TGI [31] was 24 µM and the TGI [32] was 27.2 µM. The TGI [33] was 27.6 µM, the TGI [34] was 30.4 µM and the TGI [35] was 7.26 µM. For the same compound, the TGI [36] was 22.7 µM, the TGI [65] was 30.4 µM and the TGI [37] was 28.2 µM. It also gave a TGI [66] of 32 µM, a TGI [39] of 31.8 µM and a TGI [40] of 30.2 µM. It also gave a TGI [41] of 30.5 µM, a TGI [42] of 29.3 µM and a TGI [43] of 30.3 µM. For the same compound, the TGI [44] was 34.1 µM, the TGI [45] was 85.2 µM and the TGI [67] was 62.4 µM. For the same compound, the TGI [46] was 25.8 µM, the TGI [47] was 31.1 µM and the TGI [48] was 24.1 µM. The TGI [49] was 29.4 µM, the TGI [50] was 29.1 µM and the TGI [51] was 26.4 µM. For the same compound, the TGI [52] was 29.8 µM.
For CCc1ccccc1NC(=O)C1=C(C)NC(C)=C(C(=O)Nc2ccccc2CC)C1c1cccc([N+](=O)[O-])c1, the TGI [1] was > 100 µM, the TGI [53] was 93.8 µM and the TGI [2] was > 100 µM. The TGI [3] was > 100 µM, the TGI [4] was > 100 µM and the TGI [5] was > 100 µM. For the same compound, the TGI [6] was > 100 µM, the TGI [7] was > 100 µM and the TGI [8] was > 100 µM. For the same compound, the TGI [10] was > 100 µM, the TGI [11] was 62 µM and the TGI [14] was 88.7 µM. The TGI [16] was > 100 µM, the TGI [17] was 62.8 µM and the TGI [18] was > 100 µM. The TGI [19] was > 100 µM, the TGI [20] was > 100 µM and the TGI [21] was > 100 µM. The TGI [22] was > 100 µM, the TGI [23] was > 100 µM and the TGI [24] was > 100 µM. The TGI [25] was > 100 µM, the TGI [26] was > 100 µM and the TGI [27] was > 100 µM. The TGI [28] was > 100 µM, the TGI [29] was > 100 µM and the TGI [61] was > 100 µM. For the same compound, the TGI [30] was > 100 µM, the TGI [62] was 97.8 µM and the TGI [31] was > 100 µM. The TGI [32] was > 100 µM, the TGI [33] was > 100 µM and the TGI [34] was > 100 µM. For the same compound, the TGI [35] was > 100 µM, the TGI [36] was > 100 µM and the TGI [69] was > 100 µM. The TGI [65] was > 100 µM, the TGI [37] was > 100 µM and the TGI [66] was > 100 µM. The TGI [38] was > 100 µM, the TGI [39] was > 100 µM and the TGI [40] was > 100 µM. For the same compound, the TGI [41] was > 100 µM, the TGI [42] was > 100 µM and the TGI [43] was > 100 µM. The TGI [44] was > 100 µM, the TGI [45] was > 100 µM and the TGI [46] was > 100 µM. For the same compound, the TGI [47] was > 100 µM, the TGI [48] was > 100 µM and the TGI [49] was > 100 µM. For the same compound, the TGI [51] was > 100 µM.
